Experiments:
[1] = Stability of the isolated compound (solid state; in dichloromethane solution); format: physicochemical; details: solid state conditions at -20° C.
Procedure: 2. The isolated compound was stable and pure (purity > 95% by HPLC) at solid state conditions at -20° C.
4. During NMR experiments observed partially isomerization of isolated compound. The dissolving in dichloromethane at 20 mg/ml concentration leads to steady state between major and minor isomers with ratio ~75:25. HPLC analyses of NMR solution show only one peak of isolated compound.

[2] = test system: HPAF-II and PL45 human pancreatic cancer cells; assay: Annexin-V/PI assay, induction of apoptosis; format: cell-based; details: low doses, 4 hours of exposure
Procedure: Particularly, Cell death was analyzed by staining the cells with FITC-labeled Annexin V and propedium iodide (PI) using an Annexin V-FITC apoptosis detection kit, (MBL, Nagoya, Japan), according to the manufacturer’s instructions.

[3] = test system: HPAF-II and PL45 human pancreatic cancer cells; assay: XTT assay, cell viability / proliferation; format: cell-based
Procedure: Reference is now made to FIG. 4, presenting the effect of Striatal C on the viability of HPAF-II and PL45 human pancreatic cancer cells, in comparison to the effect of the Cyathus striatus CBS 126585 extract on the same cells, wherein the measurements of the effects are based on an XTT assay. Particularly, cell proliferation was determined using the sodium 3′-[1-(phenylaminocarbonyl)-3,4-tetrazolium]-bis (4-methoxy-6-nitro) benzene sulfonic acid hydrate (XTT) assay, according to the manufacturer’s instructions (Biological Industries, Beit Haemek, Israel).

stability at solid state [1] | SMILES | induction of apoptosis [2] | most effective concentration ([3]; control 0 µg/ml) | effect on cell viability ([3]; low doses, 4 hours of exposure)
stable | CC(C)C1=C2[C@H]3[C@@H](O)C=C(C=O)[C@@H]4C(O[C@@H]5OC[C@@H](O)C(=O)[C@@]54O)[C@]3(C)CC[C@@]2(C)CC1 (stereo partly shown) [isolated compound] |  |  | 
 | CC(C)C1=C2C3=CC=C(C=O)[C@@H]4C(O[C@@H]5OC[C@@H](O)C(=O)[C@@]54O)[C@]3(C)CC[C@@]2(C)CC1 (stereo partly shown) [Striatal C] | induction of apoptosis | 10 µg/mL | profound decrease in cell viability

Source: US20230226013A1, “COMPOSITION AND METHOD FOR TREATING CANCER” (Carmel-Haifa University Economic Corp Ltd., priority 2019, published 2023)
